Results from ChEMBL document CHEMBL4673196, “Synthesis and sigma receptor affinity of spiro[[2]benzopyran-1,1-cyclohexanes] with an exocyclic amino moiety in the 3-position” (RSC Med Chem, 2021).
pKi: −log10 of the molar value. The source made the active and inactive calls. No cut-off for these calls is given here.

How the values were obtained:
[1] = molecular target: T1, Sigma intracellular receptor 2 (Rattus norvegicus, UniProt Q5U3Y7); test: Displacement of [3H]-DTG from Sprague-Dawley rat liver sigma 2 receptor incubated for 120 mins by liquid scintillation counting method; type: tissue-based
T1 sequence (Q5U3Y7 whole entry): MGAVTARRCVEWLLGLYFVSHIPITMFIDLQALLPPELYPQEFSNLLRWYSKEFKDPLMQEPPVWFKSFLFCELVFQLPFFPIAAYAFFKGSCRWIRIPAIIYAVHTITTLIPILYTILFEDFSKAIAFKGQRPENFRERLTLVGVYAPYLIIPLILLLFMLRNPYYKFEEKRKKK

Mu-type opioid receptor [2] = molecular target: T2, Mu-type opioid receptor (Homo sapiens, UniProt P35372); test: Binding affinity to MOR (unknown origin)
T2 sequence (P35372 whole entry): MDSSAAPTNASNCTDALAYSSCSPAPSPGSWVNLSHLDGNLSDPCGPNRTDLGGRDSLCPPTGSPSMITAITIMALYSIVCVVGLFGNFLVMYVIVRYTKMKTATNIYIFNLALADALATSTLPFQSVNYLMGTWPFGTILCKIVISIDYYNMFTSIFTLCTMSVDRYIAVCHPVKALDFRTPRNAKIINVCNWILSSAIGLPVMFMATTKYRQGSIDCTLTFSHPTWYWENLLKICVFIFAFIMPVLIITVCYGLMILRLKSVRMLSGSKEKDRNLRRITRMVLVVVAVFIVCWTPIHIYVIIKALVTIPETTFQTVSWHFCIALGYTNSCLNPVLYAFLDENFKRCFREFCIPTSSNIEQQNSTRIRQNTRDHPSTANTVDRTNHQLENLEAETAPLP

[3] = molecular target: T3, Delta-type opioid receptor (Homo sapiens, UniProt P41143); test: Binding affinity to DOR (unknown origin)
T3 sequence (P41143 whole entry): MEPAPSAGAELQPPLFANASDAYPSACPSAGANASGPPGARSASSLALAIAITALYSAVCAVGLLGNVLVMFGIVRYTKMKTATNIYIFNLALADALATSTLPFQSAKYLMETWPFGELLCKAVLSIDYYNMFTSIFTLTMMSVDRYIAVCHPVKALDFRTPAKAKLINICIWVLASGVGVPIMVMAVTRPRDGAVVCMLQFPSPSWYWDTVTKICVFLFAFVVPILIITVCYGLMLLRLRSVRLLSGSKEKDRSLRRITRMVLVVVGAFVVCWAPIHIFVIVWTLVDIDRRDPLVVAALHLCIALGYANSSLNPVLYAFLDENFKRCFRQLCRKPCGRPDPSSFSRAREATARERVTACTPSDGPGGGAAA

[4] = molecular target: T4, Kappa-type opioid receptor (Homo sapiens, UniProt P41145); test: Binding affinity to KOR (unknown origin)
T4 sequence (P41145 whole entry): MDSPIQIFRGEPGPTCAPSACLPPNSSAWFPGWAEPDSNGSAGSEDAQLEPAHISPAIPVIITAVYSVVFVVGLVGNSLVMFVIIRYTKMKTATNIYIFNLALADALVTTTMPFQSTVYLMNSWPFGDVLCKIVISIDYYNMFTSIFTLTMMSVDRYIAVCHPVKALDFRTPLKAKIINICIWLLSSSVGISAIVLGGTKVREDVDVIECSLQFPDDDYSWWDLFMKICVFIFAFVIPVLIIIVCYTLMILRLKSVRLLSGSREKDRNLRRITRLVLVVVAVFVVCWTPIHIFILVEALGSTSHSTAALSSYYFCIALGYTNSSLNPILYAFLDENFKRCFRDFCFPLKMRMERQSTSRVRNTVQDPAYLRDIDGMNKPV

[5] = molecular target: Sigma non-opioid intracellular receptor 1 (Cavia porcellus, UniProt Q60492); test: Displacement of [3H]-pentazocine from guinea pig brain sigma 1 receptor incubated for 120 mins by liquid scintillation counting method; type: tissue-based
Sigma non-opioid intracellular receptor 1, sequence (Q60492 whole entry): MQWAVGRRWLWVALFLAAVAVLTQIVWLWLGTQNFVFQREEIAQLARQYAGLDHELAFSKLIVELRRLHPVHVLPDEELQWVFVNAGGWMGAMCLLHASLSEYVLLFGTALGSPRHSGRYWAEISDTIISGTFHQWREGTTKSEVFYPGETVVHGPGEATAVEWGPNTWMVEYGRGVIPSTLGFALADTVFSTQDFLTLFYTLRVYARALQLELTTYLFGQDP

[6] = molecular target: T5, Sigma intracellular receptor 2 (Rattus norvegicus) (UniProt Q5U3Y7); test: Displacement of [3H]-DTG from Sprague-Dawley rat liver sigma 2 receptor at 1 uM incubated for 120 mins by liquid scintillation counting method relative to control; type: tissue-based
T5 sequence (whole entry): T1 sequence (Q5U3Y7 whole entry)

[7] = molecular target: T3, Delta-type opioid receptor; test: Binding affinity to DOR (unknown origin) at <= 1 uM; conditions: dose microM <=1
[8] = molecular target: T4, Kappa-type opioid receptor; test: Binding affinity to KOR (unknown origin) at <= 1 uM; conditions: dose microM <=1
Mu-type opioid receptor [9] = molecular target: T2, Mu-type opioid receptor; test: Binding affinity to MOR (unknown origin) at <= 1 uM; conditions: dose microM <=1

Row | SMILES | pKi [1] | pKi (Mu-type opioid receptor [2]) | pKi [3] | pKi [4] | pKi [5] | inhibition [6] | Activity [7] | Activity [8] | Activity (Mu-type opioid receptor [9])
1 | c1ccc2c(c1)CCO[C@@]21CCC[C@H](NCC2CCCCC2)C1 (relative stereo) | 7.22 | 6.16 | 6.82 | 6.39 | 8.27 |  |  |  | 
2 | CN(Cc1ccccc1)[C@H]1CCC[C@]2(C1)OCCc1ccccc12 (relative stereo) |  |  |  |  | 6.56 | 24% |  |  | 
3 | CN(CC1CCCCC1)[C@H]1CCC[C@]2(C1)OCCc1ccccc12 (relative stereo) |  |  |  |  | 7.82 | 34% | inactive | inactive | inactive
4 | c1ccc(CN[C@H]2CCC[C@]3(C2)OCCc2ccccc23)cc1 (relative stereo) | 6.47 |  |  |  | 7.02 |  |  |  | 
